This note sets out measurements from US8614341B2, “Amorphous silibinin for the treatment of viral hepatitis” (Euromed S.A., priority 2009, dated 2013).

Data set [1] is described as follows: Storage stability of the amorphous state (XRPD assessment). It is filed as physicochemical. The following applies: single polyethylene bag, 2 months. The protocol: For quantitative XRPD assessment ZnO (XRPD spectrum FIG. 3A) was used as internal standard. Three characteristics peaks of crystalline sylibinin (2-theta: 20.7, 22.3 and 24.5°) were chosen for the quantitative determination of the crystalline form and peaks at 2-theta: 56.6 and 62.8° of the internal standard (IS, ZnO) were used as reference as reported in FIG. 3B.
XRPD spectra were obtained using X'Pert diffractometer from PANalytical, using the following parameters for acquisition and data processing:
Silibinin samples obtained according to the present invention were stored at 4±2° C. at 60% R.H., 25±2° C. at 60±5% R.H. and 40±2° C. at 60±5% R.H., in a single polyethylene bag for 2 months. After this time the samples were analyzed by XRPD.

Data set [2] in a line: Solubility (HPLC - Ph. Eur. 01/2007:2071) after 30 min. It is filed as physicochemical. The protocol:
A “silibinin release rate of 80% or greater” means that the amorphous silibinin is at least 80% soluble in aqueous solution (standard according to Ph. Eur.).
Several lots of silibinin manufactured according to the method of the invention, including steps L and M, were analyzed using the XRPD method described in example 2.
Solubility of this product (HPLC—Ph. Eur. 01/2007:2071) after 30 min. is higher than 80%. Conversely the silibinin obtained according to the method of the invention without performing steps L and M, though of high chemical purity is mainly crystalline (typically more than 70% crystalline).
Solubility of this product (HPLC—Ph. Eur. 01/2007:2071) after 30 min. is lower than 80%.

For `COc1cc(C2Oc3cc(C4Oc5cc(O)cc(O)c5C(=O)C4O)ccc3OC2CO)ccc1O` (stereo not drawn) [amorphous silibinin samples, containing about 10% of crystal] [reference compound], the “stability of amorphous state (XRPD)” value in data set [1] (25±2° C. at 60±5% R.H.) was “extended crystallization”.
For the molecule `COc1cc(C2Oc3cc(C4Oc5cc(O)cc(O)c5C(=O)C4O)ccc3OC2CO)ccc1O` (stereo not drawn) [amorphous silibinin, silibinin], the “stability of amorphous state (XRPD)” value in data set [1] (4±2° C. at 60% R.H.), in data set [1] (25±2° C. at 60±5% R.H.) and in data set [1] (40±2° C. at 60±5% R.H.) was “stable” each time. In addition, the “Solubility (HPLC - Ph. Eur. 01/2007:2071)” value in data set [2] is given as “higher than 80%”.
Turning to `COc1cc(C2Oc3cc(C4Oc5cc(O)cc(O)c5C(=O)C4O)ccc3OC2CO)ccc1O` (stereo not drawn) [silibinin obtained without performing steps L and M] [reference compound], the “Solubility (HPLC - Ph. Eur. 01/2007:2071)” value in data set [2] was “lower than 80%”.
